From paper PMC11538131, “Degradation mechanism of difructose dianhydride III in Blautia species” (Applied Microbiology and Biotechnology, 2024) come the findings set out here.

Each structure is given as a SMILES string.

For the test, the target named is T1, GH32 β-D-fructofuranosidase BBDE_1523 (Bifidobacterium dentium, UniProt D2Q5I2).
T1 construct: gene fosC; cloned and expressed as BpDFA-IIIase (pET23a, C-terminal His-tag, E. coli BL21(DE3), TALON)
T1 sequence (D2Q5I2 1-518): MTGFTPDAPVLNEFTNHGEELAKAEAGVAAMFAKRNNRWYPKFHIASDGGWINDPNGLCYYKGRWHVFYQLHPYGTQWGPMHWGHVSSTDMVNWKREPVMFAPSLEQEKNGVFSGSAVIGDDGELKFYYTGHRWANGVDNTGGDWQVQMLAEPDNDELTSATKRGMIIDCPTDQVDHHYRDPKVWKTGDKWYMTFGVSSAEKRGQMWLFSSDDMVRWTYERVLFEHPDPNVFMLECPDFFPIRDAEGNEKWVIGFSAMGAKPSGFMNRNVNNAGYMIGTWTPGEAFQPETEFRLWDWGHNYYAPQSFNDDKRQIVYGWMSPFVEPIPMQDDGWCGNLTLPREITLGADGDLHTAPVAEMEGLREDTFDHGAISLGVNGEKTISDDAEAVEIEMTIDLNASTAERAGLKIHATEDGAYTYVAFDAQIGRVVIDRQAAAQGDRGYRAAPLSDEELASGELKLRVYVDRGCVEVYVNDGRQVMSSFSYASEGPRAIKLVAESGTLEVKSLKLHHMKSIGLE
Briefly: TLC and HPAEC-PAD. Format: biochemical. The following applies: 50 mM acetate pH 6.0, 37 °C, overnight; together with BpDFA-IIIase.

`OC[C@H]1O[C@@](CO)(OCC2(O)OC[C@@H](O)[C@@H](O)[C@@H]2O)[C@@H](O)[C@@H]1O` (stereo partly shown) [inulobiose]: the “TLC and HPAEC-PAD” value is “DFA-III was completely hydrolyzed into D-fructose via inulobiose”.
